Assay results: patent US10487044B2, “Gamma-aminobutyric acid hemihydrate crystal and preparation method thereof” (priority 2016, dated 2019)
Where two headings read alike, the source gives them in different places.

How the values were obtained:
[1] = Flowability test (angle of repose); assay type: physicochemical
Protocol: Flowability test: The angle of repose is the maximum angle formed between the free slope of a piled powder and the horizontal plane. It is measured when the particles achieve a static state as they slide on the free slope of the piled powder and experience a balance of gravity and interparticle friction. It is the easiest way to examine the flowability of a powder. The smaller the angle of repose, the smaller the friction and the better the flowability.

Bulk density test = assay type: physicochemical
[2] = Moisture absorption and agglomeration; assay type: physicochemical
[3] = Particle size distribution by laser particle size analyzer; assay type: physicochemical; conditions: hemihydrate
Text: The particle size distribution curves of the products in the embodiments of the present invention were all determined by Masterizer laser particle size analyzer from Malvern Panalytical (the U.K.).

[4] = prior-art product, exposed to air; cited from earlier work

Compound | flowability (in words) [1] | bulk density (in words) (Bulk density test) | moisture absorption and agglomeration [2] | other results
NCCCC(=O)O [Embodiment 3, γ-aminobutyric acid hemihydrate] | good flowability | high bulk density | did not easily absorb moisture and agglomerate | 
NCCCC(=O)O [crude λ-aminobutyric acid raw material, γ-aminobutyric acid, reference compound] |  |  |  | angle of repose [1]: 50 °; bulk density (Bulk density test): 0.65 g/mL
NCCCC(=O)O [Embodiment 1, γ-aminobutyric acid hemihydrate] |  |  | did not easily absorb moisture and agglomerate | angle of repose ([1]; hemihydrate): 38 °; main particle size [3]: 110 μm; bulk density (Bulk density test; hemihydrate): 0.85 g/mL
NCCCC(=O)O [Embodiment 4, γ-aminobutyric acid hemihydrate] | good flowability | high bulk density | did not easily absorb moisture and agglomerate | 
NCCCC(=O)O |  |  |  | hygroscopicity [4]: highly hygroscopic
NCCCC(=O)O [Embodiment 6, γ-aminobutyric acid hemihydrate] | good flowability | high bulk density | did not easily absorb moisture and agglomerate | 
NCCCC(=O)O [Embodiment 5, γ-aminobutyric acid hemihydrate] | good flowability | high bulk density | did not easily absorb moisture and agglomerate | 
NCCCC(=O)O [Embodiment 2, γ-aminobutyric acid hemihydrate] | good flowability | high bulk density | did not easily absorb moisture and agglomerate | 
